Measured values as given in ChEMBL document CHEMBL1201862, “PubChem BioAssay data set” (2004).
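Following 48 hours of exposure in 96-well plates, responses at five concentrations were used to interpolate endpoints linearly. Here, GI50 denotes the concentration required for 50% inhibition of growth.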 Activity calls are given as the source filed them. Cut-off read from the data, not from the text of the source: active = GI50 up to about 1.1 µM and inactive = higher. Where a SMILES comes first, the peptide text is derived from it. [ ]: non-standard residue; d: D form. Phe(F5) = N[CH](Cc1c(F)c(F)c(F)c(F)c1F)C(=O)O

Tests used:
Experiment in all cases: DTP human tumour cell line panel, 48 h
[1] = tested on: OVCAR-8
[2] = tested on: EKVX
[3] = tested on: OVCAR-4
[4] = tested on: SK-MEL-28
[5] = tested on: 786-0
[6] = tested on: TK-10
[7] = tested on: ACHN
[8] = tested on: UACC-62
[9] = tested on: NCI-H23
[10] = tested on: PC-3
[11] = tested on: BT-549
[12] = tested on: CCRF-CEM
[13] = tested on: RXF 393
[14] = tested on: UACC-257
[15] = tested on: M14
[16] = tested on: MDA-MB-231
[17] = tested on: T47D
[18] = tested on: DU-145
[19] = tested on: HOP-92
[20] = tested on: MDA-N

SMILES | GI50 [1] | GI50 [2] | GI50 [3] | GI50 [4] | GI50 [5] | GI50 [6] | GI50 [7] | GI50 [8] | GI50 [9] | GI50 [10] | GI50 [11] | GI50 [12] | GI50 [13] | GI50 [14] | GI50 [15] | GI50 [16] | GI50 [17] | GI50 [18] | GI50 [19] | GI50 [20]
CN(C)CCn1c(CO)nc2c1c(=O)n(C)c(=O)n2C | > 100 µM (inactive) | > 100 µM (inactive) | > 100 µM (inactive) | > 100 µM (inactive) | > 100 µM (inactive) | > 100 µM (inactive) | > 100 µM (inactive) | > 100 µM (inactive) | > 100 µM (inactive) | > 100 µM (inactive) | > 100 µM (inactive) | > 100 µM (inactive) | > 100 µM (inactive) | > 100 µM (inactive) | > 100 µM (inactive) | > 100 µM (inactive) | > 100 µM (inactive) | > 100 µM (inactive) | – | –
O=C(Nc1ccccc1C(=O)NCc1ccccc1)/C(=C/c1ccccc1O)NC(=O)c1ccccc1 | 95.1 µM (inactive) | > 100 µM (inactive) | – | > 100 µM (inactive) | 66.4 µM (inactive) | 74.6 µM (inactive) | 61 µM (inactive) | 33.7 µM (inactive) | > 100 µM (inactive) | > 100 µM (inactive) | – | > 100 µM (inactive) | 48.9 µM (inactive) | > 100 µM (inactive) | > 100 µM (inactive) | 27.1 µM (inactive) | 19.5 µM (inactive) | > 100 µM (inactive) | 75.3 µM (inactive) | –
CCC(C)C1=C(OC(C)=O)[N+]2([O-])Oc3ccc(-c4c(OC(C)=O)c(OC(C)=O)c(-c5ccc(OC(C)=O)cc5)c(OC(C)=O)c4OC(C)=O)cc3OC2(C(C)CC)C(=O)N1OC(C)=O (stereo not drawn) | 22.4 µM (inactive) | 16.1 µM (inactive) | 16.5 µM (inactive) | 19.5 µM (inactive) | 10.5 µM (inactive) | 37.7 µM (inactive) | 19.6 µM (inactive) | 9.06 µM (inactive) | 20.6 µM (inactive) | 22.5 µM (inactive) | – | 9.57 µM (inactive) | 29.6 µM (inactive) | 30.5 µM (inactive) | 20.1 µM (inactive) | 40.3 µM (inactive) | 10.9 µM (inactive) | 19.3 µM (inactive) | – | 12.3 µM (inactive)
O=C(NNC(=S)Nc1ccc(Br)cc1)c1cc(-c2ccccc2)nc2ccccc12 | 23.1 µM (inactive) | – | 19.8 µM (inactive) | 21.1 µM (inactive) | 19 µM (inactive) | 14.9 µM (inactive) | 34.8 µM (inactive) | 20 µM (inactive) | 23.6 µM (inactive) | 20.1 µM (inactive) | 24.5 µM (inactive) | 22.1 µM (inactive) | 18.4 µM (inactive) | 23.2 µM (inactive) | 17 µM (inactive) | 18.6 µM (inactive) | 17.1 µM (inactive) | 19.9 µM (inactive) | 20 µM (inactive) | –
COc1ccc(C(=O)Sc2c(-c3ccccc3)c(=O)n(-c3ccccc3)c(=S)n2-c2ccccc2)cc1 | 21.3 µM (inactive) | > 100 µM (inactive) | 44.4 µM (inactive) | 81.5 µM (inactive) | 33.7 µM (inactive) | > 100 µM (inactive) | 40.5 µM (inactive) | > 100 µM (inactive) | > 100 µM (inactive) | 5.16 µM (inactive) | – | 22.3 µM (inactive) | 24.1 µM (inactive) | > 100 µM (inactive) | 68.7 µM (inactive) | > 100 µM (inactive) | > 100 µM (inactive) | > 100 µM (inactive) | 24.1 µM (inactive) | > 100 µM (inactive)
O=S1(=O)OCCOS(=O)(=O)C1(F)Cc1ccccc1 | > 100 µM (inactive) | > 100 µM (inactive) | > 100 µM (inactive) | > 100 µM (inactive) | > 100 µM (inactive) | > 100 µM (inactive) | > 100 µM (inactive) | > 100 µM (inactive) | > 100 µM (inactive) | > 100 µM (inactive) | – | > 100 µM (inactive) | > 100 µM (inactive) | – | > 100 µM (inactive) | > 100 µM (inactive) | > 100 µM (inactive) | > 100 µM (inactive) | > 100 µM (inactive) | > 100 µM (inactive)
CC1=C2C(=O)c3ccccc3C(=O)[C@H]2C[C@@H](N2CCCC2=O)O1 | 50.9 µM (inactive) | 76.4 µM (inactive) | 20.2 µM (inactive) | 54.7 µM (inactive) | 25.2 µM (inactive) | 70.3 µM (inactive) | 90.6 µM (inactive) | 33 µM (inactive) | 21.9 µM (inactive) | > 100 µM (inactive) | – | 32.4 µM (inactive) | 23.7 µM (inactive) | 65.6 µM (inactive) | 14.7 µM (inactive) | 39.6 µM (inactive) | 22.8 µM (inactive) | 26.9 µM (inactive) | 21.9 µM (inactive) | 16.4 µM (inactive)
FC(F)=C(c1ccc(-c2ccc(Cl)cc2)cc1)C(F)(F)F | 24.3 µM (inactive) | 19.7 µM (inactive) | 18.5 µM (inactive) | 12.4 µM (inactive) | 19.8 µM (inactive) | 15.8 µM (inactive) | 17.3 µM (inactive) | 19 µM (inactive) | 17.5 µM (inactive) | 17.3 µM (inactive) | 18.2 µM (inactive) | 26.8 µM (inactive) | 20.6 µM (inactive) | 20 µM (inactive) | 19.7 µM (inactive) | 17.7 µM (inactive) | 28.2 µM (inactive) | 18.7 µM (inactive) | 15.1 µM (inactive) | –
O=C(O)CCC(=O)c1ccc2c(c1)C(C(=O)O)CC2 (stereo not drawn) | 0.652 µM (active) | > 100 µM (inactive) | > 100 µM (inactive) | > 100 µM (inactive) | > 100 µM (inactive) | > 100 µM (inactive) | > 100 µM (inactive) | > 100 µM (inactive) | > 100 µM (inactive) | > 100 µM (inactive) | – | – | 0.286 µM (active) | > 100 µM (inactive) | > 100 µM (inactive) | > 100 µM (inactive) | > 100 µM (inactive) | > 100 µM (inactive) | > 100 µM (inactive) | > 100 µM (inactive)
Cc1ccccc1N1C(N)=C(C#N)C(C#N)(C#N)C1c1ccccc1 (stereo not drawn) | 20.9 µM (inactive) | 17.9 µM (inactive) | 19 µM (inactive) | 17.6 µM (inactive) | 17.3 µM (inactive) | 14.6 µM (inactive) | 16.1 µM (inactive) | 17.9 µM (inactive) | 19.4 µM (inactive) | 24.6 µM (inactive) | 13.6 µM (inactive) | 14.7 µM (inactive) | 15.3 µM (inactive) | 17 µM (inactive) | 23.4 µM (inactive) | 13.3 µM (inactive) | 12.5 µM (inactive) | 16.7 µM (inactive) | 13.8 µM (inactive) | –
COC(=O)C(=O)C(C(=O)OC)C(=O)C(=O)Nc1c(C)cccc1C (stereo not drawn) | > 100 µM (inactive) | > 100 µM (inactive) | > 100 µM (inactive) | > 100 µM (inactive) | > 100 µM (inactive) | > 100 µM (inactive) | > 100 µM (inactive) | > 100 µM (inactive) | > 100 µM (inactive) | – | – | 48.2 µM (inactive) | > 100 µM (inactive) | > 100 µM (inactive) | > 100 µM (inactive) | – | – | – | 41.6 µM (inactive) | –
COc1ccc(OCC(=O)O)c(C(=O)CCC(=O)O)c1 | > 100 µM (inactive) | > 100 µM (inactive) | > 100 µM (inactive) | > 100 µM (inactive) | > 100 µM (inactive) | > 100 µM (inactive) | > 100 µM (inactive) | > 10 µM (inactive) | > 100 µM (inactive) | – | – | > 100 µM (inactive) | > 100 µM (inactive) | > 100 µM (inactive) | > 10 µM (inactive) | – | – | – | > 100 µM (inactive) | –
O=C(c1ccc2ccccc2c1)N(Cc1cccnc1)C(=S)N(Cc1cccnc1)C(=O)c1ccc2ccccc2c1 | 25.7 µM (inactive) | 22.8 µM (inactive) | 20.7 µM (inactive) | 36.9 µM (inactive) | 25.2 µM (inactive) | 31.1 µM (inactive) | 32.1 µM (inactive) | 26 µM (inactive) | 23.1 µM (inactive) | 28.3 µM (inactive) | 17 µM (inactive) | 60.7 µM (inactive) | 19.3 µM (inactive) | 19.5 µM (inactive) | 20.8 µM (inactive) | 23.2 µM (inactive) | 26.3 µM (inactive) | 27 µM (inactive) | 26.5 µM (inactive) | –
COC(=O)C(CC(C)C)NC(=O)C(Cc1c[nH]cn1)NC(=O)CNC(=O)C(NC(=O)C(C)NC(=O)C(Cc1c[nH]c2ccccc12)NC(=O)C(CCC(=O)O)NC(=O)C(N)Cc1c(F)c(F)c(F)c(F)c1F)C(C)C (stereo not drawn) (H-[Phe(F5)]EWAVGHL-OMe; configuration not given here) | > 12.5 µM (inactive) | > 12.5 µM (inactive) | > 12.5 µM (inactive) | > 12.5 µM (inactive) | > 12.5 µM (inactive) | – | > 12.5 µM (inactive) | > 12.5 µM (inactive) | > 12.5 µM (inactive) | > 12.5 µM (inactive) | – | > 12.5 µM (inactive) | > 12.5 µM (inactive) | > 12.5 µM (inactive) | > 12.5 µM (inactive) | > 12.5 µM (inactive) | > 12.5 µM (inactive) | > 12.5 µM (inactive) | – | > 12.5 µM (inactive)
O=CN/C=C/c1cc(O)ccc1O [ERBSTATIN] | 17.8 µM (inactive) | 18.6 µM (inactive) | 17.8 µM (inactive) | 23.4 µM (inactive) | 14 µM (inactive) | 17 µM (inactive) | 14.8 µM (inactive) | 13.7 µM (inactive) | 18.8 µM (inactive) | > 100 µM (inactive) | – | 4.11 µM (inactive) | 13 µM (inactive) | 13.5 µM (inactive) | 14.9 µM (inactive) | – | – | 30.1 µM (inactive) | 11.6 µM (inactive) | –
